Activity calls are given as the source filed them. The calls are words filed in the database; no cut-off is given here.
Columns and labels:
Splenic lymphocyte [1] = test: Immunopotentiating activity in splenic lymphocytes (unknown origin) assessed as effect on proliferation by measuring cell viability pretreated followed by incubation of lymphocytes with ConA for 48 hrs by MTT assay; assay type: functional, cell-based
Splenic lymphocyte [2] = test: Immunopotentiating activity in splenic lymphocytes (unknown origin) assessed as effect on proliferation by measuring cell viability pretreated followed by incubation of lymphocytes with LPS for 48 hrs by MTT assay; assay type: functional, cell-based
Mus musculus [3] = test: Immunopotentiating activity in sheep RBC-immunized BALB/c mouse assessed as increase in isolated splenic […] proliferation administered orally for 14 days followed by incubation of isolated splenocytes with ConA for 72 hrs by MTT assay; assay type: functional
Mus musculus [4] = test: Immunopotentiating activity in sheep RBC-immunized BALB/c mouse assessed as B-cell activation by measuring IgG antibody titer in serum at 0.001 mg/kg, po for 14 days by hemagglutinination technique; assay type: functional, organism-based
Mus musculus [5] = test: Immunopotentiating activity in sheep RBC-immunized BALB/c mouse assessed as CD8-positive splenic T-cells at 0.001 mg/kg, po for 14 days by flow cytometry (reference value: 13.3 +/- 0.34%); assay type: functional
Mus musculus [6] = test: Immunopotentiating activity in sheep RBC-immunized BALB/c mouse assessed as CD8-positive splenic T-cells at 0.01 mg/kg, po for 14 days by flow cytometry (reference value: 13.3 +/- 0.34%); assay type: functional
Mus musculus [7] = test: Immunopotentiating activity in sheep RBC-immunized BALB/c mouse assessed as ratio of CD4-positive splenic T-cells to CD8-positive splenic T-cells at 0.1 mg/kg, po for 14 days by flow cytometry (RVB = 1.56 +/- 0.09); assay type: functional
Mus musculus [8] = species: Mus musculus; test: Cytotoxicity in BALB/c mouse splenocytes at 100 ug/ml measured after 72 hrs by MTT assay; assay type: toxicity; details: splenocyte
Mus musculus [9] = test: Immunopotentiating activity in sheep RBC-immunized BALB/c mouse assessed as ratio of CD4-positive splenic T-cells to CD8-positive splenic T-cells at 0.01 mg/kg, po for 14 days by flow cytometry (RVB = 1.56 +/- 0.09); assay type: functional
Mus musculus [10] = test: Immunopotentiating activity in sheep RBC-immunized BALB/c mouse assessed as increase in IL2 production in splenocytes administered orally for 14 days followed by incubation with ConA for 48 hrs by ELISA; assay type: functional, cell-based
Mus musculus [11] = test: Immunopotentiating activity in sheep RBC-immunized BALB/c mouse assessed as increase in IL4 production in splenocytes administered orally for 14 days followed by incubation with ConA for 48 hrs by ELISA; assay type: functional, cell-based
Mus musculus [12] = test: Immunopotentiating activity in sheep RBC-immunized BALB/c mouse assessed as B-cell activation by measuring IgM antibody titer in serum at 0.01 mg/kg, po for 14 days measured on day 7 post dose by hemagglutinination technique; assay type: functional, organism-based
Mus musculus [13] = test: Immunopotentiating activity in sheep RBC-immunized BALB/c mouse assessed as increase in delayed-type hypersensitivity response by measuring left hind foot pad thickness at 0.001 mg/kg, po qd administered 2 hrs post immunization for 7 days measured 24 to 48 hrs post SRBC challenge by spheromicrometer method; assay type: functional, organism-based
Mus musculus [14] = test: Immunopotentiating activity in sheep RBC-immunized BALB/c mouse assessed as CD8-positive T-cell content in spleen at 0.001 mg/kg, po for 14 days by flow cytometry (reference value: 1.47 +/- 0.04 10^7No_unit); assay type: functional
Mus musculus [15] = test: Immunopotentiating activity in sheep RBC-immunized BALB/c mouse assessed as ratio of CD4-positive splenic T-cells to CD8-positive splenic T-cells at 0.001 mg/kg, po for 14 days by flow cytometry (RVB = 1.56 +/- 0.09); assay type: functional
Mus musculus [16] = test: Immunopotentiating activity in sheep RBC-immunized BALB/c mouse assessed as increase in isolated splenic B-cell proliferation administered orally for 14 days followed by incubation of isolated splenocytes with LPS for 72 hrs by MTT assay; assay type: functional
Mus musculus [17] = test: Immunopotentiating activity in sheep RBC-immunized BALB/c mouse assessed as B-cell activation by measuring IgG antibody titer in serum at 0.01 mg/kg, po for 14 days by hemagglutinination technique; assay type: functional, organism-based
Mus musculus [18] = test: Immunopotentiating activity in sheep RBC-immunized BALB/c mouse assessed as increase in interferon-gamma production in splenocytes administered orally for 14 days followed by incubation with ConA for 48 hrs by ELISA; assay type: functional, cell-based
Mus musculus [19] = test: Immunopotentiating activity in sheep RBC-immunized BALB/c mouse assessed as CD4-positive T-cell content in spleen at 0.01 mg/kg, po for 14 days by flow cytometry (reference value: 2.7 +/- 0.12 10^7No_unit); assay type: functional
Mus musculus [20] = test: Immunopotentiating activity in sheep RBC-immunized BALB/c mouse assessed as B-cell activation by measuring IgM antibody titer in serum at 0.001 mg/kg, po for 14 days measured on day 7 post dose by hemagglutinination technique; assay type: functional, organism-based
Mus musculus [21] = test: Immunopotentiating activity in sheep RBC-immunized BALB/c mouse assessed as CD4-positive splenic T-cells at 0.001 mg/kg, po for 14 days by flow cytometry (reference value: 20.7 +/- 0.9%); assay type: functional
Mus musculus [22] = test: Immunopotentiating activity in sheep RBC-immunized BALB/c mouse assessed as CD8-positive splenic T-cells at 0.1 mg/kg, po for 14 days by flow cytometry (reference value: 13.3 +/- 0.34%); assay type: functional
Mus musculus [23] = test: Immunopotentiating activity in sheep RBC-immunized BALB/c mouse assessed as B-cell activation by measuring IgG antibody titer in serum at 0.1 mg/kg, po for 14 days by hemagglutinination technique; assay type: functional, organism-based
Mus musculus [24] = test: Immunopotentiating activity in sheep RBC-immunized BALB/c mouse assessed as B-cell activation by measuring IgM antibody titer in serum at 0.1 mg/kg, po for 14 days measured on day 7 post dose by hemagglutinination technique; assay type: functional, organism-based
Mus musculus [25] = test: Immunopotentiating activity in sheep RBC-immunized BALB/c mouse assessed as CD4-positive splenic T-cells at 0.1 mg/kg, po for 14 days by flow cytometry (reference value: 20.7 +/- 0.9%); assay type: functional
Mus musculus [26] = test: Immunopotentiating activity in sheep RBC-immunized BALB/c mouse assessed as increase in isolated splenic T-cell proliferation administered orally for 14 days followed by incubation of isolated splenocytes with LPS for 72 hrs by MTT assay; assay type: functional
Mus musculus [27] = test: Immunopotentiating activity in sheep RBC-immunized BALB/c mouse assessed as increase in isolated splenic T-cell proliferation administered orally for 14 days followed by incubation of isolated splenocytes with ConA for 72 hrs by MTT assay; assay type: functional
Mus musculus [28] = test: Immunopotentiating activity in sheep RBC-immunized BALB/c mouse assessed as CD8-positive T-cell content in spleen at 0.1 mg/kg, po for 14 days by flow cytometry (reference value: 1.47 +/- 0.04 10^7No_unit); assay type: functional
Mus musculus [29] = test: Immunopotentiating activity in sheep RBC-immunized BALB/c mouse assessed as CD4-positive T-cell content in spleen at 0.001 mg/kg, po for 14 days by flow cytometry (reference value: 2.7 +/- 0.12 10^7No_unit); assay type: functional
Mus musculus [30] = test: Immunopotentiating activity in sheep RBC-immunized BALB/c mouse assessed as increase in macrophage production by measuring increase in NO production administered orally for 14 days followed by incubation with LPS for 48 hrs by Griess assay; assay type: functional
Mus musculus [31] = test: Immunopotentiating activity in sheep RBC-immunized BALB/c mouse assessed as CD8-positive T-cell content in spleen at 0.01 mg/kg, po for 14 days by flow cytometry (reference value: 1.47 +/- 0.04 10^7No_unit); assay type: functional
Mus musculus [32] = test: Immunopotentiating activity in sheep RBC-immunized BALB/c mouse assessed as CD4-positive splenic T-cells at 0.01 mg/kg, po for 14 days by flow cytometry (reference value: 20.7 +/- 0.9%); assay type: functional
Mus musculus [33] = test: Immunopotentiating activity in sheep RBC-immunized BALB/c mouse assessed as CD4-positive T-cell content in spleen at 0.1 mg/kg, po for 14 days by flow cytometry (reference value: 2.7 +/- 0.12 10^7No_unit); assay type: functional
Splenic lymphocyte [34] = test: Immunopotentiating activity in splenic lymphocytes (unknown origin) assessed as effect on proliferation by measuring cell viability at 0.1 to 1 ug/ml pretreated followed by incubation of lymphocytes with LPS for 48 hrs by MTT assay; assay type: functional, cell-based
Splenic lymphocyte [35] = test: Immunopotentiating activity in splenic lymphocytes (unknown origin) assessed as effect on proliferation by measuring cell viability at 10 ug/ml pretreated followed by incubation of lymphocytes with ConA for 48 hrs by MTT assay; assay type: functional, cell-based
Splenic lymphocyte [36] = test: Immunopotentiating activity in splenic lymphocytes (unknown origin) assessed as effect on proliferation by measuring cell viability at 0.1 to 1 ug/ml pretreated followed by incubation of lymphocytes with ConA for 48 hrs by MTT assay; assay type: functional, cell-based
Splenic lymphocyte [37] = test: Immunopotentiating activity in splenic lymphocytes (unknown origin) assessed as effect on proliferation by measuring cell viability at 10 ug/ml pretreated followed by incubation of lymphocytes with LPS for 48 hrs by MTT assay; assay type: functional, cell-based

## Cc1ccccc1C1=NOC(COc2ccc3ccc(=O)oc3c2)C1 (stereo not drawn)
Splenic lymphocyte [1]
  Activity: Dose-dependent effect
Splenic lymphocyte [2]
  Activity: Dose-dependent effect

## COc1ccccc1C1=NOC(COc2ccc3ccc(=O)oc3c2)C1 (stereo not drawn)
Mus musculus [3]
  Activity: Dose-dependent effect
Mus musculus [4]
  Activity: Active
Splenic lymphocyte [1]
  Activity: Dose-dependent effect
Mus musculus [5]
  Activity: 15.4%
Mus musculus [6]
  Activity: 15.3%
Mus musculus [7]
  Ratio: 1.69
Mus musculus [8]
  Activity: Non-Toxic
Mus musculus [9]
  Ratio: 1.58
Mus musculus [10]
  Activity: Dose-dependent effect
Mus musculus [11]
  Activity: Dose-dependent effect
Mus musculus [12]
  Activity: Active
Mus musculus [13]
  Activity: Active
Mus musculus [14]
  Activity: 0.88 ×10⁷ No_unit
Mus musculus [15]
  Ratio: 1.32
Mus musculus [16]
  Activity: Dose-dependent effect
Mus musculus [17]
  Activity: Active
Mus musculus [18]
  Activity: Dose-dependent effect
Mus musculus [19]
  Activity: 1.31 ×10⁷ No_unit
Mus musculus [20]
  Activity: Active
Mus musculus [21]
  Activity: 20.3%
Mus musculus [22]
  Activity: 18.4%
Mus musculus [23]
  Activity: Active
Mus musculus [24]
  Activity: Active
Mus musculus [25]
  Activity: 31.1%
Splenic lymphocyte [2]
  Activity: Dose-dependent effect
Mus musculus [26]
  Activity: Dose-dependent effect
Mus musculus [27]
  Activity: Dose-dependent effect
Mus musculus [28]
  Activity: 1.37 ×10⁷ No_unit
Mus musculus [29]
  Activity: 1.02 ×10⁷ No_unit
Mus musculus [30]
  Activity: Dose-dependent effect
Mus musculus [31]
  Activity: 1.18 ×10⁷ No_unit
Mus musculus [32]
  Activity: 24.2%
Mus musculus [33]
  Activity: 1.51 ×10⁷ No_unit

## O=c1ccc2ccc(OCC3CC(c4ccc([N+](=O)[O-])cc4)=NO3)cc2o1 (stereo not drawn)
Splenic lymphocyte [34]
  Activity: Active
Splenic lymphocyte [35]
  Activity: Active
Splenic lymphocyte [36]
  Activity: Active
Splenic lymphocyte [37]
  Activity: Active

## COc1cccc(C2=NOC(COc3ccc4ccc(=O)oc4c3)C2)c1 (stereo not drawn)
Splenic lymphocyte [1]
  Activity: Dose-dependent effect
Splenic lymphocyte [2]
  Activity: Dose-dependent effect

## O=c1ccc2ccc(O)cc2o1
Splenic lymphocyte [34]
  Activity: Active
Splenic lymphocyte [35]
  Activity: Active
Splenic lymphocyte [36]
  Activity: Active
Splenic lymphocyte [37]
  Activity: Active

## O=c1ccc2ccc(OCC3CC(c4ccc(Cl)cc4)=NO3)cc2o1 (stereo not drawn)
Splenic lymphocyte [34]
  Activity: Active
Splenic lymphocyte [35]
  Activity: Active
Splenic lymphocyte [36]
  Activity: Active
Splenic lymphocyte [37]
  Activity: Active

## O=c1ccc2ccc(OCC3CC(c4ccc(F)cc4)=NO3)cc2o1 (stereo not drawn)
Splenic lymphocyte [34]
  Activity: Active
Splenic lymphocyte [35]
  Activity: Active
Splenic lymphocyte [36]
  Activity: Active
Splenic lymphocyte [37]
  Activity: Active

## Cc1ccc(C2=NOC(COc3ccc4ccc(=O)oc4c3)C2)cc1 (stereo not drawn)
Splenic lymphocyte [1]
  Activity: Dose-dependent effect
Splenic lymphocyte [2]
  Activity: Dose-dependent effect

## O=c1ccc2ccc(OCC3CC(c4cccc5ccccc45)=NO3)cc2o1 (stereo not drawn)
Splenic lymphocyte [34]
  Activity: Active
Splenic lymphocyte [35]
  Activity: Active
Splenic lymphocyte [36]
  Activity: Active
Splenic lymphocyte [37]
  Activity: Active

## O=c1ccc2ccc(OCC3CC(c4ccc(Br)cc4)=NO3)cc2o1 (stereo not drawn)
Splenic lymphocyte [34]
  Activity: Active
Splenic lymphocyte [35]
  Activity: Active
Splenic lymphocyte [36]
  Activity: Active
Splenic lymphocyte [37]
  Activity: Active

Source: ChEMBL document CHEMBL3872204, “Synthesis and immunopotentiating activity of novel isoxazoline functionalized coumarins” (Eur J Med Chem, 2016)
